The text below walks through data of patent US20260035387A1 (BIOGEN MA INC., priority 2022, published 2026).

This assay has as its system mutant Huntington (HTT) protein. The assay is described as follows: HTT Mutant HTRF iPSC assay (mHTT protein lowering). The format is cell-based. The following applies: human iPSC derived from a HTT patient with a poly-Q49 mutation.
By IC50 is commonly meant the point on the concentration scale where inhibition reaches its midpoint. Higher therefore signals a need for much substance. In turn, `Cc1cn2cc(NC(=O)c3nc4ccc(C5=CCCN(C)C5)nc4s3)cc(F)c2n1` [Compound 133, N-(8-fluoro-2-methylimidazo[1,2-a]pyridin-6-yl)-5-(1-methyl-1,2,5,6-tetrahydropyridin-3-yl)thiazolo[5,4-b]pyridine-2-carboxamide] had an IC50 of under 100 nM.

Consider `Cc1cn2cc(NC(=O)c3nc4ccc(C5CCCN(C)C5)nc4s3)cc(F)c2n1` (centres unmarked) [Compound 134, N-(8-fluoro-2-methylimidazo[1,2-a]pyridin-6-yl)-5-(1-methylpiperidin-3-yl)thiazolo[5,4-b]pyridine-2-carboxamide], for which the IC50 is under 100 nM.

`COc1cc2nn(C)cc2cc1NC(=O)c1nc2ccc(C3CCN(C)CC3)nc2s1` [Compound 135, N-(6-methoxy-2-methyl-2H-indazol-5-yl)-5-(1-methylpiperidin-4-yl)thiazolo[5,4-b]pyridine-2-carboxamide] yielded an IC50 of 100 to 1000 nM.

Compound `Cc1cn2cc(NC(=O)c3nc4ccc(C5CCN(C)CC5)nc4s3)nc(C)c2n1` [Compound 136, N-(2,8-dimethylimidazo[1,2-a]pyrazin-6-yl)-5-(1-methylpiperidin-4-yl)thiazolo[5,4-b]pyridine-2-carboxamide] had an IC50 of 1000 to 9000 nM.

Compound `COc1cc2nn(C)cc2cc1NC(=O)c1nc2ccc(C3CCN(C)C3)nc2s1` (centres unmarked) [Compound 137, N-(6-methoxy-2-methyl-2H-indazol-5-yl)-5-(1-methylpyrrolidin-3-yl)thiazolo[5,4-b]pyridine-2-carboxamide] yielded an IC50 of under 100 nM.

`Cc1cn2cc(NC(=O)c3nc4ccc(C5CCN(C)C5)nc4s3)nc(C)c2n1` (centres unmarked) [Compound 138, N-(2,8-dimethylimidazo[1,2-a]pyrazin-6-yl)-5-(1-methylpyrrolidin-3-yl)thiazolo[5,4-b]pyridine-2-carboxamide]: the half-maximal inhibitory concentration (IC50) was 100 to 1000 nM.

Turning to `Cc1cn2cc(NC(=O)c3nc4ccc(C5C[C@@H](C)N[C@@H](C)C5)nc4s3)cc(F)c2n1` (stereo partly drawn) [Compound 139, 5-[(2S,6R)-2,6-dimethyl-4-piperidyl]-N-(8-fluoro-2-methyl-imidazo[1,2-a]pyridin-6-yl)thiazolo[5,4-b]pyridine-2-carboxamide], the IC50 is under 100 nM.

On to `Cc1cn2cc(NC(=O)c3nc4ccc(C5=C[C@@H](C)N[C@@H](C)C5)nc4s3)cc(F)c2n1` [Compound 140, 5-[(2S,6R)-2,6-dimethyl-1,2,3,6-tetrahydropyridin-4-yl]-N-(8-fluoro-2-methyl-imidazo[1,2-a]pyridin-6-yl)thiazolo[5,4-b]pyridine-2-carboxamide], for which the IC50 was under 100 nM.

Consider `Cc1cn2cc(NC(=O)c3cc4ncc(C5CC6CCC(C5)N6)nc4s3)cc(F)c2n1` (centres unmarked) [Compound 142, 3-(8-azabicyclo[3.2.1]octan-3-yl)-N-(8-fluoro-2-methylimidazo[1,2-a]pyridin-6-yl)thieno[2,3-b]pyrazine-6-carboxamide], for which the IC50 lay in the range of 100 to 1000 nM.

In the case of `Cc1cn2cc(NC(=O)c3cc4ncc(C5CCCCN5)nc4s3)cc(F)c2n1` (centres unmarked) [Compound 144, N-(8-fluoro-2-methylimidazo[1,2-a]pyridin-6-yl)-3-(piperidin-2-yl)thieno[2,3-b]pyrazine-6-carboxamide], the IC50 fell in the range of 1000 to 9000 nM.

Consider `Cc1cn2cc(NC(=O)c3cc4ncc(C5CCNC5)nc4s3)cc(F)c2n1` (centres unmarked) [Compound 146, N-(8-fluoro-2-methylimidazo[1,2-a]pyridin-6-yl)-3-(pyrrolidin-3-yl)thieno[2,3-b]pyrazine-6-carboxamide], for which the IC50 was under 100 nM.

In turn, `Cc1cn2cc(NC(=O)c3cc4ncc(C5=CCNCC5)nc4s3)cc(F)c2n1` [Compound 147, N-(8-fluoro-2-methylimidazo[1,2-a]pyridin-6-yl)-3-(1,2,3,6-tetrahydropyridin-4-yl)thieno[2,3-b]pyrazine-6-carboxamide] displayed an IC50 of under 100 nM.

`Cc1cn2cc(NC(=O)c3cc4ncc(C5CCNCC5)nc4s3)cc(F)c2n1` [Compound 148, N-(8-fluoro-2-methyl-imidazo[1,2-a]pyridin-6-yl)-3-(4-piperidyl)thieno[2,3-b]pyrazine-6-carboxamide] had an IC50 of under 100 nM.

`Cc1cn2cc(NC(=O)c3cc4cnc(N5CC[C@@H](N(C)C)C5)nc4s3)cc(F)c2n1` [Compound 149, (R)-2-(3-(dimethylamino)pyrrolidin-1-yl)-N-(8-fluoro-2-methylimidazo[1,2-a]pyridin-6-yl)thieno[2,3-d]pyrimidine-6-carboxamide] came in with an IC50 of 100 to 1000 nM.

`Cc1cn2cc(NC(=O)c3cc4cnc(N5CC[C@@H](N(C)C)C5)nc4s3)nc(C)c2n1` [Compound 150, (R)-2-(3-(dimethylamino)pyrrolidin-1-yl)-N-(2,8-dimethylimidazo[1,2-a]pyrazin-6-yl)thieno[2,3-d]pyrimidine-6-carboxamide] came in with an IC50 of 100 to 1000 nM.

Consider `Cc1cn2cc(NC(=O)c3cc4cnc(N5CC[C@H](N(C)C)C5)nc4s3)nc(C)c2n1` [Compound 151, (S)-2-(3-(dimethylamino)pyrrolidin-1-yl)-N-(2,8-dimethylimidazo[1,2-a]pyrazin-6-yl)thieno[2,3-d]pyrimidine-6-carboxamide], for which the IC50 was in the range of 1000 to 9000 nM.

For `Cc1cn2cc(NC(=O)c3cc4cnc(N5CC[C@H](N(C)C)C5)nc4s3)cc(F)c2n1` [Compound 152, 2-[(3S)-3-(dimethylamino)pyrrolidin-1-yl]-N-(8-fluoro-2-methyl-imidazo[1,2-a]pyridin-6-yl)thieno[2,3-d]pyrimidine-6-carboxamide], the IC50 was 100 to 1000 nM.

`Cc1cn2cc(C(=O)Nc3cc4ccc(N5CC[C@H](N(C)C)C5)nc4s3)cc(F)c2n1` [Compound 153, N-[6-[(3S)-3-(dimethylamino)pyrrolidin-1-yl]thieno[2,3-b]pyridin-2-yl]-8-fluoro-2-methyl-imidazo[1,2-a]pyridine-6-carboxamide] gave an IC50 of under 100 nM.

`Cc1cn2cc(NC(=O)c3cc4ccc(OC5CCC(N(C)C)C5)nc4s3)cc(F)c2n1` (centres unmarked) [Compound 155, 6-((3-(dimethylamino)cyclopentyl)oxy)-N-(8-fluoro-2-methylimidazo[1,2-a]pyridin-6-yl)thieno[2,3-b]pyridine-2-carboxamide] returned an IC50 of under 100 nM.

The compound `Cc1cn2cc(NC(=O)c3cc4ccc(OC5C[C@@H](C)N[C@H](C)C5)nc4s3)cc(F)c2n1` (some centres unmarked) [Compound 157] came in with an IC50 of 100 to 1000 nM.

`Cc1cn2cc(NC(=O)c3cc4ccc(OC5CCC6(CCN(C)CC6)C5)nc4s3)cc(F)c2n1` (centres unmarked) [Compound 160, N-(8-fluoro-2-methylimidazo[1,2-a]pyridin-6-yl)-6-((8-methyl-8-azaspiro[4.5]decan-2-yl)oxy)thieno[2,3-b]pyridine-2-carboxamide] returned an IC50 of 100 to 1000 nM.

As to `Cc1cn2cc(NC(=O)c3cc4ccc(OC5CC6(CCN(C)CC6)C5)nc4s3)cc(F)c2n1` [Compound 162, N-(8-fluoro-2-methylimidazo[1,2-a]pyridin-6-yl)-6-((7-methyl-7-azaspiro[3.5]nonan-2-yl)oxy)thieno[2,3-b]pyridine-2-carboxamide], the IC50 was in the range of 100 to 1000 nM.

In turn, `Cc1cn2cc(NC(=O)c3cc4nc(C5CCN(C)CC5)ccc4o3)cc(F)c2n1` [Compound 163, N-(8-fluoro-2-methyl-imidazo[1,2-a]pyridin-6-yl)-5-(1-methyl-4-piperidyl)furo[3,2-b]pyridine-2-carboxamide] had an IC50 of 100 to 1000 nM.

Regarding `COc1cc2nn(C)cc2cc1NC(=O)c1cc2nc(N3CCC(N4CCC4)C3)ccc2o1` (centres unmarked) [Compound 164, 5-(3-(azetidin-1-yl)pyrrolidin-1-yl)-N-(6-methoxy-2-methyl-2H-indazol-5-yl)furo[3,2-b]pyridine-2-carboxamide], the IC50 fell in the range of 100 to 1000 nM.

For `Cc1cn2cc(NC(=O)c3cc4nc(N5CCN(C)CC5)ccc4o3)cc(F)c2n1` [Compound 165, N-(8-fluoro-2-methylimidazo[1,2-a]pyridin-6-yl)-5-(4-methylpiperazin-1-yl)furo[3,2-b]pyridine-2-carboxamide], the IC50 was under 100 nM.

In turn, `Cc1cn2cc(NC(=O)c3cc4nc(N5CC[C@@H](N(C)C)C5)ccc4o3)cc(F)c2n1` [Compound 166, (R)-5-(3-(dimethylamino)pyrrolidin-1-yl)-N-(8-fluoro-2-methylimidazo[1,2-a]pyridin-6-yl)furo[3,2-b]pyridine-2-carboxamide] showed an IC50 of under 100 nM.

In the case of `COc1cc2nn(C)cc2cc1NC(=O)c1cc2nc(N3CCC4(CCCN4C)C3)ccc2o1` (centres unmarked) [Compound 167, N-(6-methoxy-2-methyl-2H-indazol-5-yl)-5-(1-methyl-1,7-diazaspiro[4.4]nonan-7-yl)furo[3,2-b]pyridine-2-carboxamide], the IC50 was under 100 nM.

The compound `Cc1cn2cc(NC(=O)c3cc4nc(N5CCNCC5)ccc4o3)cc(F)c2n1` [Compound 169, N-(8-fluoro-2-methylimidazo[1,2-a]pyridin-6-yl)-5-(piperazin-1-yl)furo[3,2-b]pyridine-2-carboxamide] returned an IC50 of under 100 nM.

`COc1cc2nn(C)cc2cc1NC(=O)c1cc2nc(N3CCC(N(C)C)C3)ccc2o1` (centres unmarked) [Compound 170, 5-(3-(dimethylamino)pyrrolidin-1-yl)-N-(6-methoxy-2-methyl-2H-indazol-5-yl)furo[3,2-b]pyridine-2-carboxamide] had an IC50 of under 100 nM.

As for `COc1cn2nc(C)cc2cc1NC(=O)c1cc2nc(N3C[C@@H]4CN(C)C[C@@H]43)ccc2o1` [Compound 171, N-(6-methoxy-2-methylpyrazolo[1,5-a]pyridin-5-yl)-5-((1S,5R)-3-methyl-3,6-diazabicyclo[3.2.0]heptan-6-yl)furo[3,2-b]pyridine-2-carboxamide], the IC50 lay within 100 to 1000 nM.

Consider `COc1cc2nn(C)cc2cc1NC(=O)c1cc2nc(N3CC[C@@H](N4CCC4)C3)ccc2o1` [Compound 172, (R)-5-(3-(azetidin-1-yl)pyrrolidin-1-yl)-N-(6-methoxy-2-methyl-2H-indazol-5-yl)furo[3,2-b]pyridine-2-carboxamide], for which the IC50 is 100 to 1000 nM.

Compound `COc1cc2nn(C)cc2cc1NC(=O)c1cc2nc(N3CC[C@H](N4CCC4)C3)ccc2o1` [Compound 173, (S)-5-(3-(azetidin-1-yl)pyrrolidin-1-yl)-N-(6-methoxy-2-methyl-2H-indazol-5-yl)furo[3,2-b]pyridine-2-carboxamide] came in with an IC50 of 100 to 1000 nM.
